Patent publication US8563545B2, “Compound useful for the treatment of degenerative and inflammatory diseases” (Galapagos NV, priority 2009, dated 2013)
Read-outs that look alike come from different tables or passages of the source.

Experiments:
Caco2 permeability = format: in vitro ADME; settings: human; for Papp at 1 h, 10 µM: pH 7.4, Caco-2, 10 μM; for efflux ratio at 1 h, 10 µM: Caco-2, pH 7.4, Papp B>A/Papp A>B
Procedure: Bi-directional Caco-2 assays were performed as described below. Caco-2 cells were obtained from European Collection of Cell Cultures (ECACC, cat 86010202) and used after a 21 day cell culture in 24-well Transwell plates (Fisher TKT-545-020B).
2×10^5 cells/well were seeded in plating medium consisting of DMEM+GlutaMAXI+1% NEAA+10% FBS (FetalClone II)+1% Pen/Strep. The medium was changed every 2-3 days.
Test and reference compounds (propranolol and rhodamine123 or vinblastine, all purchased from Sigma) were prepared in Hanks' Balanced Salt Solution containing 25 mM HEPES (pH7.4) and added to either the apical (125 μL) or basolateral (600 μL) chambers of the Transwell plate assembly at a concentration of 10 μM with a final DMSO concentration of 0.25%.
50 μM Lucifer Yellow (Sigma) was added to the donor buffer in all wells to assess integrity of the cell layers by monitoring Lucifer Yellow permeation. As Lucifer Yellow (LY) cannot freely permeate lipophilic barriers, a high degree of LY transport indicates poor integrity of the cell layer.
After a 1 hr incubation at 37° C. while shaking at an orbital shaker at 150 rpm, 70 μL aliquots were taken from both apical (A) and basal (B) chambers and added to 100 μL1 50:50 acetonitrile:water solution containing analytical internal standard (0.5 μM carbamazepine) in a 96 well plate.
Concentrations of compound in the samples were measured by high performance liquid-chromatography/mass spectroscopy (LC-MS/MS).
The Efflux ratios, as an indication of active efflux from the apical cell surface, were calculated using the ratio of Papp B>A/Papp A>B.

[1] = Steady state PK in rat CIA model; format: in vivo; settings: plasma; for AUC(0-t): read-out: AUC (0-24 h); for half-life: read-out: T½ (converted)
Procedure: At day 7 or 11, blood samples were collected at the retro-orbital sinus with lithium heparin as anti-coagulant at the following time points: predose, 1, 3 and 6 hrs. Whole blood samples were centrifuged and the resulting plasma samples were stored at −20° C. pending analysis. Plasma concentrations of each test compound were determined by an LC-MS/MS method in which the mass spectrometer was operated in positive electrospray mode. Pharmacokinetic parameters were calculated using Winnonlin® (Pharsight®, United States) and it was assumed that the predose plasma levels were equal to the 24 hrs plasma levels.

Aqueous solubility = format: physicochemical; settings: kinetic from dmso stock
Procedure: Starting from a 10 mM stock in DMSO, a serial dilution of the compound was prepared in DMSO. The dilution series was transferred to a 96 NUNC Maxisorb plate F-bottom (Cat no. 442404) and 0.2M phosphate buffer pH7.4 or 0.1M citrate buffer pH 3.0 at room temperature was added.
The final concentration ranged from 200 μM to 2.5 μM in 5 equal dilution steps. […] 200 μM Pyrene was added to the corner points of each 96 well plate and served as a reference point for calibration of Z-axis on the microscope.
The assay plates were sealed and incubated for 1 hr at 37° C. while shaking at 230 rpm. The plates were then scanned under a white light microscope, yielding individual pictures of the precipitate per concentration. The precipitate was analyzed and converted into a number which was plotted onto a graph. The first concentration at which the compound appears completely dissolved is the concentration is reported below, however the true concentration lies somewhere between this concentration and one dilution step higher.
Solubility values are reported in μg/mL

JAK3 = JAK3 (Homo sapiens (Human), UniProt P52333); assay: JAK3 inhibition assay; format: biochemical
Procedure: (§1) Plates were washed 6 times with 300 μL per well of a 75 mM phosphoric acid solution and the bottom of the plates was sealed. 40 μL/well of Microscint-20 was added, the top of the plates was sealed and readout was performed using the Topcount (Perkin Elmer). Kinase activity was calculated by subtracting counts per minute (cpm) obtained in the presence of a positive control inhibitor (10 μM staurosporine) from cpm obtained in the presence of vehicle. The ability of a test compound to inhibit this activity was determined as:
(§2) Percentage inhibition=((cpm determined for sample with test compound present−cpm determined for sample with positive control inhibitor)divided by(cpm determined in the presence of vehicle−cpm determined for sample with positive control inhibitor))*100.
Dose dilution series were prepared for the compounds enabling the testing of dose-response effects in the JAK3 assay and the calculation of the IC50 for each compound.

TYK2 = TYK2 (Homo sapiens (Human), UniProt P29597); assay: TYK2 inhibition assay; format: biochemical
Procedure: as §1, with “After 90 min at 30° C., reactions were stopped by adding 25 μL/well of 150 mM phosphoric acid. […] Plates” for “Plates”
as §2
Dose dilution series were prepared for the compounds enabling the testing of dose-response effects in the TYK2 assay and the calculation of the IC50 for each compound.

JAK1 = JAK1 (Homo sapiens (Human), UniProt P23458); assay: JAK1 inhibition assay; format: biochemical
Procedure: as §1, §2
Dose dilution series were prepared for the compounds enabling the testing of dose-response effects in the JAK1 assay and the calculation of the IC50 for each compound.

[2] = 0.2 M phosphate buffer pH 7.4, 37 °C, pH 7.4, aqueous buffer, 0.2M phosphate buffer pH7.4, read-out: Aqueous solubility pH 7.4
[3] = 37 °C, aqueous buffer, 0.1M citrate buffer pH 3.0, read-out: Aqueous solubility pH 3.0

JAK3, sequence (P52333 781-1124): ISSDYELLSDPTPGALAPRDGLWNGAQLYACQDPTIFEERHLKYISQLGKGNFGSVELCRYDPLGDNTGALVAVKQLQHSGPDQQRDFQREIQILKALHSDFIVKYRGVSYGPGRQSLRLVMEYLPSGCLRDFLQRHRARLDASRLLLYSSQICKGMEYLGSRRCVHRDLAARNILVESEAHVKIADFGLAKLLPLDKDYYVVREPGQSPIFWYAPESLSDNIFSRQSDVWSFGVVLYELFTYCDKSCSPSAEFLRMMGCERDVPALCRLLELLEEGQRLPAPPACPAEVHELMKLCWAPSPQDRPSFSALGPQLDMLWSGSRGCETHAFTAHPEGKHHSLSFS
TYK2, sequence (P29597 871-1187): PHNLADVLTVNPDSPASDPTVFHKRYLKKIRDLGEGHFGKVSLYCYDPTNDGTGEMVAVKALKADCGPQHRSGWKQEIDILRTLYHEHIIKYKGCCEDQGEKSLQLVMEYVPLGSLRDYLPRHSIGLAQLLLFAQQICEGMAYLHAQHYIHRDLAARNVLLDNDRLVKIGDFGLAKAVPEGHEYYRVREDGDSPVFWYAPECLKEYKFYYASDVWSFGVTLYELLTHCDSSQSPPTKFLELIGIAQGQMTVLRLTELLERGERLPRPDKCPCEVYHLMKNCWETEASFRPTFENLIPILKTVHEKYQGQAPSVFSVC
JAK1, sequence (P23458 850-1154): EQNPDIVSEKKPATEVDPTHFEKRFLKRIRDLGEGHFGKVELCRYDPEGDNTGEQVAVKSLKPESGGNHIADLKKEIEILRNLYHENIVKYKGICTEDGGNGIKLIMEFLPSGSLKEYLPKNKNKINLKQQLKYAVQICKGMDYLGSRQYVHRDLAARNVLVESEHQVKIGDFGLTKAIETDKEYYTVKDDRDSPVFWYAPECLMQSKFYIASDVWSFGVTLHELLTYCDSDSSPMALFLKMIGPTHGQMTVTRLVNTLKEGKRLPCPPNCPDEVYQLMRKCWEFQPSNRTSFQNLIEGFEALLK

Papp at 1 h, 10 µM (Caco2 permeability) [×10⁻⁶ cm/s]	Cmax ([1]; PO 10 mg/kg/day) [ng/mL]	Tmax ([1]; PO 10 mg/kg/day) [h]	AUC(0-t) ([1]; PO 10 mg/kg/day) [ng·h/mL]	half-life ([1]; PO 10 mg/kg/day) [h]	Cmax ([1]; PO 30 mg/kg/day) [ng/mL]	Tmax ([1]; PO 30 mg/kg/day) [h]	AUC(0-t) ([1]; PO 30 mg/kg/day) [ng·h/mL]	half-life ([1]; PO 30 mg/kg/day) [h]	solubility at 1 h (Aqueous solubility; [2]) [µg/mL]	solubility at 1 h (Aqueous solubility; [3]) [µg/mL]	IC50 (JAK3) [nM]	IC50 (TYK2) [nM]	efflux ratio at 1 h, 10 µM (Caco2 permeability)	IC50 (JAK1) [nM]	SMILES	also measured
3.33	1170	1	7170	4.5	3800	1	27800	3.9	> 85	> 85					O=C(Nc1nc2cccc(-c3ccc(CN4CCS(=O)(=O)CC4)cc3)n2n1)C1CC1 [Compound 1, Cyclopropanecarboxylic acid {5-[4-(1,1-dioxo-1-thiomorpholin-4-ylmethyl)-phenyl]-[1,2,4]triazolo [1,5-a]pyridin-2-yl}-amide]	Cmax ([1]; PO 0.1 mg/kg/day): 5.18 ng/mL; Tmax ([1]; PO 0.1 mg/kg/day): 3 h; AUC(0-t) ([1]; PO 0.1 mg/kg/day): 30 ng·h/mL; Cmax ([1]; PO 0.3 mg/kg/day): 19.3 ng/mL; Tmax ([1]; PO 0.3 mg/kg/day): 1 h; AUC(0-t) ([1]; PO 0.3 mg/kg/day): 163 ng·h/mL; Cmax ([1]; PO 1 mg/kg/day): 102 ng/mL; Tmax ([1]; PO 1 mg/kg/day): 1 h; AUC(0-t) ([1]; PO 1 mg/kg/day): 931 ng·h/mL; half-life ([1]; PO 1 mg/kg/day): 3.6 h; Cmax ([1]; PO 3 mg/kg/day): 363 ng/mL; Tmax ([1]; PO 3 mg/kg/day): 1 h; AUC(0-t) ([1]; PO 3 mg/kg/day): 1930 ng·h/mL; half-life ([1]; PO 3 mg/kg/day): 5.6 h
25	867	1	2020	1.17	2630	1	7810	3.36	> 38	> 38	2840	2100			O=C(Nc1nc2cccc(-c3ccc(CN4CCOCC4)cc3)n2n1)C1CC1 [Compound 2, N-(5-(4-(morpholinomethyl)phenyl)-[1,2,4]triazolo[1,5-a]pyridin-2-yl)cyclopropanecarboxamide]	
0.05									> 87.9	> 87.9			97.6	18.2	O=C(Nc1nc2cccc(-c3ccc(C(=O)N4CCS(=O)(=O)CC4)cc3)n2n1)C1CC1 [Compound 10, Cyclopropanecarboxylic acid {5-[4-(1,1-dioxo-1-thiomorpholine-4-carbonyl)-phenyl]-[1,2,4]triazolo [1,5-a]pyridin-2-yl}-amide]	
36.5											195	126	0.9	7.69	O=C(Nc1nc2cccc(-c3ccc(CN4CCC(F)(F)CC4)cc3)n2n1)C1CC1 [Compound 11, Cyclopropanecarboxylic acid {5-[4-(4,4-difluoro-piperidin-1-ylmethyl)-phenyl]-[1,2,4]triazolo [1,5-a]pyridin-2-yl}-amide]	
